Results on two compounds are retold here after PubChem BioAssay (NCI).

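Each compound was tested at five concentrations against cells in 96-well plates for 48 hours. At the GI50, growth is halved. Definition used: TGI = concentration required for complete inhibition of growth.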

Test systems include NCI-H460 lung; UACC-62 melanoma; COLO 205 colon; DU-145 prostate; SF-268 CNS; 786-0 renal; SN12C renal; T-47D breast; MDA-MB-435; IGROV1 ovarian.
Common to all, as to test: NCI-60 cell line screen, 48 h

Regarding `O=C(O)c1cn(C2CC2)c2cc(N3CCN(C(=O)Nc4nc(-c5ccc(Cl)cc5)cs4)CC3)c(F)cc2c1=O`, the GI50 with NCI-H460 lung is 1.76 µM; in the assay on UACC-62 melanoma, 2.4 µM; with COLO 205 colon, 3.32 µM; in the assay on DU-145 prostate it was 2.29 µM; in the assay on SF-268 CNS, 0.828 µM; in the assay with 786-0 renal, 2.32 µM. Also, the GI50 in the assay on SN12C renal is 3.53 µM; in the assay on T-47D breast it was 1.65 µM; in the assay with MDA-MB-435 it was 2.75 µM; in the assay on IGROV1 ovarian, 0.815 µM. Further, the TGI with NCI-H460 lung is above 100 µM; with UACC-62 melanoma it was 37.9 µM; in the assay on COLO 205 colon, above 100 µM; in the assay on DU-145 prostate, above 100 µM; with SF-268 CNS, above 100 µM; in the assay on 786-0 renal, 22.5 µM. Also, the TGI with SN12C renal, in the assay on T-47D breast, in the assay with MDA-MB-435 and in the assay with IGROV1 ovarian was above 100 µM in each case.
As for `COc1ccc(C2SC(C)C(=O)N2NC(=O)C(O)c2ccccc2)cc1` (stereo not given), the GI50 in the assay with NCI-H460 lung, in the assay on UACC-62 melanoma, with COLO 205 colon, in the assay on DU-145 prostate, in the assay with SF-268 CNS and in the assay on 786-0 renal was above 100 µM throughout. Moreover, the GI50 in the assay on SN12C renal, in the assay on T-47D breast, with MDA-MB-435 and in the assay on IGROV1 ovarian was above 100 µM each time. Also, the TGI in the assay on NCI-H460 lung, in the assay on UACC-62 melanoma, in the assay with COLO 205 colon, in the assay with DU-145 prostate, with SF-268 CNS and in the assay on 786-0 renal was above 100 µM in each case. For the same compound, the TGI in the assay on SN12C renal, in the assay with T-47D breast, in the assay with MDA-MB-435 and with IGROV1 ovarian was above 100 µM each time.
